The values below are quoted from earlier work in patent US5585490A, “Certain cycloalkyl and azacycloalkyl pyrrolopyrimidines; a new class of GABA brain receptor ligands” (priority 1993, dated 1996).

Each structure is given as a SMILES string.

This data set concerns benzodiazepine binding site. As to conditions: Tallman et al., 1978, Nature, 274: 383-85.

With `CN1CCc2cc3c(cc2C1C1OC(=O)c2c1ccc1c2OCO1)OCO3` (single isomer, unassigned; (+)) [(+) bicuculline], the “Enhancement of benzodiazepine binding by GABA agonists is blocked” value is recorded as “blocked”.

Regarding `CN1CCc2cc3c(cc2C1C1OC(=O)c2c1ccc1c2OCO1)OCO3` (single isomer, unassigned; (-)) [(-) bicuculline], the “Enhancement of benzodiazepine binding by GABA agonists is blocked” value is recorded as “much less active”.
